Experimental data as given in paper PMC7691360, “Synthesis of novel cytotoxic tetracyclic acridone derivatives and study of their molecular docking, ADMET, QSAR, bioactivity and protein binding properties” (Scientific Reports, 2020).

Tests used:
Assay type in all cases: cell-based
HEK293T cells = experiment: MTT cytotoxicity assay against HEK293T; conditions: Homo sapiens, HEK-293T, 48 h, read-out: Percentage of inhibition against treated concentrations
Procedure: (§1) Anticancer activity of 7a–s has been evaluated by MTT [3-(4,5-dimethylthiazol-2-yl)-2,5-diphenyl-tetrazolium bromide] assay and the cell lines HT29 (ATCC: HTB-38), MDA-MB-231 (ATCC: HTB-26), HEK293T (ATCC: CRL-3216) were procured from American type cell culture collection (ATCC), Manassas, USA and other chemicals were procured from Sigma-Aldrich. Then absorbance (used as a measure of cell proliferation) was measured at 570 nm with a kinetic micro-plate reader (BioTek, Winooski, Vermont).
(§2) Having synthesized a series of the title compounds, all of them were screened for their in vitro anticancer profiles against a panel of human colorectal adenocarcinoma (HT29), human breast adenocarcinoma (MDA-MB-231) and mutated Human embryonic kidney 293 (HEK293T) cancer cell lines by using MTT colourmetric assay as per Johan van Meerloo protocol. The three cell lines were cultured in […] medium and supplemented with 10% FBS followed by 100 units/mL penicillin/ streptomycin and were cultured at 37 °C in 5% CO2. Cell proliferation of the growing cells was measured in terms of logarithmic standards. Analytically, all the cultured cells were plated onto 96 well plates at a starting density of 10^5 cells. Then all the cells were treated with title compounds 7a–s for a period of 48 h with different concentrations. After this incubation cell proliferation inhibition was determined by MTT assay and all the experiments were conducted in triplicates and readings were presented as mean ± SD and provided in Tables 1, 2 and 3.

HT29 cells = experiment: MTT cytotoxicity assay against HT29; conditions: Homo sapiens, 48 h, read-out: Percentage of inhibition against treated concentrations; for activity at 1 µM: HT-29, HT29, 1 µM; for activity at 5 µM: HT-29, HT29, 5 µM; for activity at 10 µM: HT-29, HT29, 10 µM; for activity at 25 µM: HT-29, HT29, 25 µM; for activity at 50 µM: HT-29, HT29, 50 µM
Procedure: as §1, §2

MDA-MB-231 cells = experiment: MTT cytotoxicity assay against MDA-MB-231; conditions: Homo sapiens, 48 h, read-out: Percentage of inhibition against treated concentrations; for activity at 1 µM: MDAMB231, 1 µM; for activity at 5 µM: MDAMB231, 5 µM; for activity at 10 µM: MDAMB231, 10 µM; for activity at 25 µM: MDAMB231, 25 µM; for activity at 50 µM: MDAMB231, 50 µM
Procedure: as §1, §2

| SMILES | activity at 1 µM (HEK293T cells) | activity at 5 µM (HEK293T cells) | activity at 10 µM (HEK293T cells) | activity at 25 µM (HEK293T cells) | activity at 50 µM (HEK293T cells) | activity at 1 µM (HT29 cells) | activity at 5 µM (HT29 cells) | activity at 10 µM (HT29 cells) | activity at 25 µM (HT29 cells) | activity at 50 µM (HT29 cells) | activity at 1 µM (MDA-MB-231 cells) | activity at 5 µM (MDA-MB-231 cells) | activity at 10 µM (MDA-MB-231 cells) | activity at 25 µM (MDA-MB-231 cells) | activity at 50 µM (MDA-MB-231 cells) |
| --- | --- | --- | --- | --- | --- | --- | --- | --- | --- | --- | --- | --- | --- | --- | --- |
| O=C(c1ccccc1C(F)(F)F)N1CCn2c3ccccc3c(=O)c3cccc1c32 [Compound 7m, 3-(2-(Trifluoromethyl)benzoyl)-2,3-dihydro-1H,7H-pyrazino[3,2,1-de]acridin-7-one] | 97.18 ± 0.28% | 94.73 ± 0.82% | 92.36 ± 0.46% | 86.88 ± 0.3% | 51.2 ± 0.07% | 92.71 ± 0.01% | 76.71 ± 0.17% | 68.5 ± 0.72% | 57.33 ± 0.32% | 23.8 ± 0.33% | 92.11 ± 0.88% | 71.15 ± 0.19% | 65 ± 0.46% | 56.9 ± 0.59% | 33.5 ± 0.57% |
| O=C(CC1CC1)N1CCn2c3ccccc3c(=O)c3cccc1c32 [Compound 7d, 3-(2-Cyclopropylacetyl)-2,3-dihydropyrazino[3,2,1-de]acridin-7(1H)-one] | 99.76 ± 0.56% | 98.09 ± 0.42% | 97.1 ± 0.88% | 96.35 ± 0.19% | 56.8 ± 0.69% | 88.71 ± 0.78% | 63.1 ± 0.71% | 50.91 ± 0.38% | 29.68 ± 0.23% | 18 ± 0.39% | 85.23 ± 0.73% | 55.73 ± 0.21% | 45.6 ± 0.98% | 28.6 ± 0.43% | 16.83 ± 0.16% |
| COc1cccc2c1C(=O)c1c(O)c3c(c(O)c1C2=O)C[C@@](O)(C(=O)CO)C[C@@H]3O[C@H]1C[C@H](N)[C@H](O)[C@H](C)O1 [Doxorubicin, reference compound] | 96.1 ± 0.83% | 95.66 ± 0.42% | 92.44 ± 0.56% | 85.27 ± 0.78% | 50.25 ± 0.14% | 97.09 ± 0.79% | 90.76 ± 0.83% | 82.92 ± 0.54% | 72.6 ± 0.83% | 42.8 ± 0.86% | 93.65 ± 0.42% | 87.54 ± 0.67% | 79.98 ± 0.67% | 69.98 ± 0.47% | 41.2 ± 0.79% |
| O=C(c1cccc(C(F)(F)F)n1)N1CCn2c3ccccc3c(=O)c3cccc1c32 [Compound 7i, 3-(6-(Trifluoromethyl)picolinoyl)-2,3-dihydropyrazino[3,2,1-de]acridin-7(1H)-one] | 98.39 ± 0.19% | 95.7 ± 0.97% | 93.38 ± 0.64% | 88.56 ± 0.24% | 52.19 ± 0.26% | 83.56 ± 0.57% | 59.1 ± 0.75% | 46.5 ± 0.52% | 25.8 ± 0.28% | 12.2 ± 0.27% | 84.78 ± 0.64% | 55.71 ± 0.32% | 45.6 ± 0.94% | 28.6 ± 0.3% | 16.8 ± 0.37% |
| O=C(c1cccc(C(F)(F)F)c1)N1CCn2c3ccccc3c(=O)c3cccc1c32 [Compound 7n, 3-(3-(Trifluoromethyl)benzoyl)-2,3-dihydro-1H,7H-pyrazino[3,2,1-de]acridin-7-one] | 96.84 ± 0.75% | 94.67 ± 0.59% | 92.02 ± 0.39% | 84.32 ± 0.28% | 49.69 ± 0.21% | 95.32 ± 0.73% | 79.12 ± 0.33% | 72.72 ± 0.33% | 59.26 ± 0.11% | 26.9 ± 0.84% | 90.57 ± 0.59% | 69.83 ± 0.31% | 61.97 ± 0.44% | 54.23 ± 0.32% | 31.96 ± 0.16% |
| O=C(c1cccc(F)c1)N1CCn2c3ccccc3c(=O)c3cccc1c32 [Compound 7q, 3-(3-Fluorobenzoyl)-2,3-dihydro-1H,7H-pyrazino[3,2,1-de]acridin-7-one] | 98.51 ± 0.12% | 96.21 ± 0.72% | 94.69 ± 0.34% | 91.34 ± 0.41% | 53.8 ± 0.58% | 94.96 ± 0.53% | 78.87 ± 0.43% | 70.57 ± 0.53% | 58.23 ± 0.29% | 25.3 ± 0.44% | 93.46 ± 0.54% | 72.41 ± 0.45% | 66.2 ± 0.69% | 57.89 ± 0.12% | 34.1 ± 0.37% |
